Experimental data taken from BindingDB's records for PubMed 36971365 (Dongguk University, 2023).
pIC50: −log10 of the molar value.

Molecular target: Signal transducer and activator of transcription 3 (Homo sapiens, UniProt P40763)
Experiment: Inhibition of STAT3 (unknown origin) transfected in human HepG2 cells assessed as inhibition of IL-6 induced STAT3 phosphorylation by luciferase reporter gene assay

Signal transducer and activator of transcription 3, sequence (P40763 whole entry): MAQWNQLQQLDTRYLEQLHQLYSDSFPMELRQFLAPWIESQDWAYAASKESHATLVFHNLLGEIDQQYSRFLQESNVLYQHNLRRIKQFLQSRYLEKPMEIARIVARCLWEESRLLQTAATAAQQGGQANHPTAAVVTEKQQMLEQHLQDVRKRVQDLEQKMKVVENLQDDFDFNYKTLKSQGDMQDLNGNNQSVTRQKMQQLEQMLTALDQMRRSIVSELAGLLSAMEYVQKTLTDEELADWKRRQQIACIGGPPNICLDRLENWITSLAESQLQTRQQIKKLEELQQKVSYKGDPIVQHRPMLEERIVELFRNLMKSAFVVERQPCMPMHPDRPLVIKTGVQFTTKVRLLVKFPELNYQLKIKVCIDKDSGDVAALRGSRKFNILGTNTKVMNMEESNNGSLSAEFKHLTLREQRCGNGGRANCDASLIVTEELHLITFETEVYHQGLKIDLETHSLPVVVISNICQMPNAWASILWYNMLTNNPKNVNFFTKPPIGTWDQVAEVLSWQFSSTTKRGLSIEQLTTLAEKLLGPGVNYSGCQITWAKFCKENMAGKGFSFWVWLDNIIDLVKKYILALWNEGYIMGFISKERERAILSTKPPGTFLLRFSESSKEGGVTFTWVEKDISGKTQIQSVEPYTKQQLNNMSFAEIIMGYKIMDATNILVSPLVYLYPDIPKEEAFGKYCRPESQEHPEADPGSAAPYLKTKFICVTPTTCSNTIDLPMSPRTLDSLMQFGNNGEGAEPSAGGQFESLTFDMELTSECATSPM

pIC50: 5.23
SMILES: C=C(CCCCC)[C@@H](O)[C@H](C)C(=O)N1C(=O)OC[C@@H]1C(C)C
